Publication PMC4789278, “Pharmacological inhibition of LSD1 for the treatment of MLL-rearranged leukemia” (Journal of Hematology & Oncology, 2016)
pIC50: −log10 of the molar value. Entries after “also recorded” stand apart in the source; their conditions may differ.

How the values were obtained:
MV4-11 leukemia = experiment: Systemic mouse model of MV4-11 leukemia
Text: A mouse model of systemic MV4-11 leukemia was established by injecting 10^7 MV4-11 cells/mouse intravenously through the tail veil into NOD-SCID mice with an engraftment rate of 100 %. After 2 weeks, human CD33^+/CD45^+ leukemia cells (0.1–0.5 %) can be detected by FACS in blood samples of the mice. The disease progressed rapidly, causing deaths in ~6 weeks after leukemia transplantation. Thus, upon detection of MV4-11 engraftments, mice were randomly separated into treatment and control groups.
NOD-SCID mice (4 to 6 weeks old) were obtained from Jackson lab (Bar Harbor, ME, USA) and maintained under specific pathogen-free conditions; 10^7 MV4-11 cells/mouse were injected intravenously through the tail veil, and animal weights were monitored twice a week. After 2 weeks when the blood samples showing 0.1–0.5 % CD45+/CD33+ human leukemia cells, mice were randomly segregated into control and treatment groups. […] Animals were sacrificed when >20 % weight loss, hunched posture, ruffled fur, or inactivity was observed. The peripheral blood, spleen, and bone marrow cells were isolated and tested for CD45^+/CD33^+ using FACS. Log-rank analysis was used to determine statistical significance of the survival curves using Prism 5.0.

[1] = Toxicity in mice (weight, blood test); type: in vivo
Text: Continuous infusion of 1 using a subcutaneously implanted osmotic pump was used for in vivo studies to avoid the unfavorable pharmacokinetics because this route may provide a stable plasma drug concentration.

human MAO-B = molecular target: T1, human MAO-B (Homo sapiens, UniProt P27338); experiment: MAO-B inhibition (MAO-Glo); type: biochemical
T1 construct: purchased Sigma
T1 sequence (P27338 1-520): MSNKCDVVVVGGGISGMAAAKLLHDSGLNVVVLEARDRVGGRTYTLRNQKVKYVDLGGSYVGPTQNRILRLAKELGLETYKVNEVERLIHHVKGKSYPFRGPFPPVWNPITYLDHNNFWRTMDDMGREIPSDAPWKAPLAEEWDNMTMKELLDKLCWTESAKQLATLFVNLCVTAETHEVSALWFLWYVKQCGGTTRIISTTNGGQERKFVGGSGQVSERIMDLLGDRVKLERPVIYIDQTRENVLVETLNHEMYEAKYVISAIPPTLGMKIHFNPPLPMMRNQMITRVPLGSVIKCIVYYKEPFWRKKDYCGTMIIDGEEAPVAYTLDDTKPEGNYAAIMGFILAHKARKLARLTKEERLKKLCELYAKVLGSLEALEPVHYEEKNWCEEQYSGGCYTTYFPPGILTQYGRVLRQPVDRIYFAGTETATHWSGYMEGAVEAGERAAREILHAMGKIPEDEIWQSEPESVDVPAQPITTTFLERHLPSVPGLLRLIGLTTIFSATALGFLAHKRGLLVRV
Protocol: Because MAO-A and -B play important roles in the degradation of neurotransmitters (e.g., serotonin and dopamine) in the central nervous system, selective inhibition for LSD1 is highly desirable.
Recombinant human MAO-A and -B were purchased from Sigma. The inhibitory activity was determined using MAO-Glo assay kit (Promega). In brief, following the manufacturer’s protocol, assays were performed in 384-well white plates (Corning) using MAO-A or -B (100 nM) with a final volume of 20 μL. Reactions were quenched after 60 min by adding reconstituted luciferin detection reagent (20 μL/well); 20 min after addition of the detection reagent, the luminescence of each well was measured using Beckman DTX-880 microplate reader. IC50 calculation was similar to that of LSD1.

SMILES | less leukemia cells in the blood (MV4-11 leukemia; 2.5 mg/kg/day for 28 days) [%] | less leukemia cells in the spleen (MV4-11 leukemia; 2.5 mg/kg/day for 28 days) [%] | reduction of MV4-11 leukemia cells in the bone marrow (MV4-11 leukemia; 2.5 mg/kg/day for 28 days) [%] | human CD33+/CD45+ leukemia cells in the bone marrow (average) (MV4-11 leukemia; 2.5 mg/kg/day for 28 days, control 33.6 %) [%] | median survival (MV4-11 leukemia; 2.5 mg/kg/day for 28 days, control 34.5 days) [days] | inhibition of leukemia burdens in the bone marrow, spleen, and peripheral blood (MV4-11 leukemia; 5 mg/kg) [%] | inhibition rate in the blood (MV4-11 leukemia; 5 mg/kg/day for 28 days) [%] | inhibition rate in the bone marrow (MV4-11 leukemia; 5 mg/kg/day for 28 days) [%] | inhibition rate in the spleen (MV4-11 leukemia; 5 mg/kg/day for 28 days) [%] | median survival (MV4-11 leukemia; 5 mg/kg/day for 28 days, control 45 days) [days] | weight losses and visible signs of toxicity ([1]; 2.5 and 5 mg/kg/day for 28 days, osmotic pump) | blood cell counts and hemoglobin vs control ([1]; blood test on day 28) | pIC50 (human MAO-B)
CN1CCN(C(=O)CNC2CC2c2ccc(OCc3ccccc3)cc2)CC1 (stereo not shown) [Compound 1] | 92 | 81 | 80 | 6.7 | 43 | > 89 | 99 | 96 | 89 | 60 | did not cause weight losses as well as any visible signs of toxicity | no significant differences; also recorded: no significant changes in blood cell counts | –
CN1CCN(C(=O)CNC2CC2c2ccc(-c3ccc(F)nc3)cc2)CC1 (stereo not shown) [Compound 2] | – | – | – | – | – | – | – | – | – | – | – | – | 3.32
